Here are results for ten compounds from patent publication US9365532B1, “Synthesis, composition and use of novel therapeutic and cosmetic Schiff base products formed by reaction of a carbonyl containing moeity with a transimination nucleophilic catalyst and the use of transimination nucleophilic catalysts to increase the rate at which carbonyl containing therapeutic and …” (Nanometics, LLC., priority 2011, dated 2016).

The subject of one data set is human skin. The experiment in a line: Melanoidin formation in vivo on human skin. The following applies: low concentrations of transimination nucleophilic catalyst. How it is done: The application areas were allowed to dry for 5 min and were monitored for 14 days, with photographs taken throughout. The subjects were asked not to bathe for the first 24 h. […] Significant differences in the appearance of the application areas were noticeable during the study, and no adverse reactions of any kind were observed. […] The preliminary results of these experiments are promising, and we plan to expand the study to incorporate a larger, statistically significant panel during phase II SBIR studies.

Data set [1] in a line: Stability to air, light and moisture (controlled humidity chamber). The format is physicochemical. The following applies: 500 mg, light, 22° C., 2 wks. The method, then: The commercial-scale production, distribution and stability of 5HMF, a hygroscopic off-white solid, may be costly as the compound is highly susceptible to degradation upon exposure to air, light and moisture (21). […] To quantify the differences in stability, 500 mg of AIC or 5HMF were placed in a controlled humidity chamber and exposed to light at 22° C. for a period of 2 wks.

Another data set has as its target T1, HbA (Homo sapiens, UniProt P69905).
T1 construct: purified HbA (1 mg/ml), from an anonymous human donor; from tissue; host or cells: blood of an anonymous human donor (purified HbA)
The experiment in a line: 5HMF/HbA Schiff base adduct formation with purified HbA, cation-exchange HPLC. It counts as binding. The following applies: for percent Hb adduct (5HMF/HbA): 30 min at room temperature, HbA 1 mg/ml PBS 7.4. How it is done:
The isolated imine of Example 1, formed by reacting p-aminobenzoic acid and 5-hydroxymethyl furfural, reacts with hemoglobin at faster rates than 5HMF. The therapeutic imine was synthesized according to Example 1. To a solution of purified HbA (1 mg/ml), from an anonymous human donor, in PBS 7.4 was added equivalent amounts of the therapeutic imine of AIC (1 mM), or 5HMF (1 mM). The HbA solutions show a new peak (˜7.1 min) on cation-exchange HPLC (Table 2) that elutes prior to the unmodified HbA peak (˜8.2 min). The new peak represents the […] formed between 5HMF and HbA and can be quantified by integration of the representative peaks. […] The initial rate of Schiff base adduct formation between the therapeutic imine and HbA is nearly 10 times faster than the rate of formation between 5HMF and HbA, as determined by cation-exchange HPLC at room temperature.

The target in data set [2] is T2, HbS (Homo sapiens, UniProt P69905).
T2 construct: To aliquots of whole blood (100 μL), from the BERKγM mouse; from tissue; host or cells: red cells in whole blood of BERKγM / BERK M transgenic sickle mice (ex vivo incubation, or in vivo after i.v. injection)
The experiment in a line: Ex vivo 5HMF/HbS adduct formation in whole blood, AIC vs 5HMF. It counts as cell-based, BERKγM mouse. The following applies: for 5HMF/HbS adduct formed: 30 min at 37° C.
Target sequence in this assay (P69905 2-142 limits assumed): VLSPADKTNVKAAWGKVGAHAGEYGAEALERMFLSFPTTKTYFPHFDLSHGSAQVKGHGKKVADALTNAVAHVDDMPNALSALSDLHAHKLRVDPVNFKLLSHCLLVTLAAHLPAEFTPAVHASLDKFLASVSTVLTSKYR

Data set [3] deals with T2, HbS. Kind of data set: In vivo 5HMF/HbS adduct formation after intravenous injection. More on the design: species or system BERK M mice. The following applies: 200 mg/kg each. How it is done: BERK M mice were injected (intravenous) with solutions containing either 5HMF (200 mg/kg) or 5HMF (200 mg/kg) and the sodium salt of PABA (200 mg/kg). […] To assess of 5HMF/HbS adduct formation, aliquots of blood were taken at 10 and 30 min, and immediately washed, lysed and subjected to HPLC as previously described.
Target sequence in this assay (P69905 2-142): as the sequence (P69905 2-142 limits assumed) above

The conditions of data set [4]: mouse, in vivo; cited from earlier work.
Data set [5] is described as follows: Behaviour and toxicity after intravenous injection.
The next data set has as its system sickle cells. The following applies: in vitro, high concentrations of 5HMF; cited from earlier work.
Data set [6] concerns the target T2, HbS. Kind of data set: Ex vivo 5HMF/HbS adduct formation in whole blood, PABA/5HMF mixtures. The format is cell-based, BERKγM transgenic mouse. The following applies: for 5HMF/HbS adduct formed: whole blood. The method, then: Studies were initiated to explore the impact of mixing equimolar concentrations of PABA and 5HMF on the rate of 5HMF/HbS adduct formation in whole blood from a BERKγM transgenic mouse. To aliquots of whole blood (100 μL) was added either 5HMF (2 mM or 5 mM), the sodium salt of PABA (2 mM or 5 mM), or equimolar concentrations of PABA/5HMF (2 mM or 5 mM). […] The rate enhancements are not optimized in these experiments, and additional experiments to account for the differences in rates of transport across the RBC membrane will be performed during Phase II SBIR studies.
Target sequence in this assay (P69905 2-142): as the sequence (P69905 2-142 limits assumed) above

The next data set addresses hemoglobin (Homo sapiens, UniProt P69905). The experiment in a line: Oxygen equilibrium curves of hemoglobin solutions (Hemox Analyzer). It counts as biochemical. The note with it: for n50 (hill coefficient) / ΔP50 (%) / P50: no PABA. The method, then:
The oxygen equilibrium curves (OEC) of hemoglobin (1 mg/ml) in phosphate buffer saline pH 7.4 containing 100 mM, 10 mM or 1 mM of the sodium salt of p-aminobenzoate (Sigma) were determined with a Hemox Analyzer (TCS Scientific Corp.). Hemoglobin solutions were incubated at 37° C. for 1 h, in the presence (+) or absence (−) of each compound, as specified in Table 1.

Another data set concerns T-cell surface amines. Kind of data set: Competitive covalent ligation assay, Tucaresol/T-cell adduct formation (flow cytometry). It counts as cell-based, Balb/c male mice. The note with it: 500 μM Tucaresol and/or 1 mM PABA, 30 min, 37° C. From the text:
The central hypothesis of our approach involves utilizing PABA to increase the rate of Schiff base formation between Tucaresol and T-cells in order to minimize the concentration of Tucaresol required for efficacy. We used an established competitive covalent ligation assay (2) to examine the influence of PABA on the rate and degree of Schiff base-adduct formation between Tucaresol and T-cells isolated from the spleens of Balb/c male mice. In this assay, the degree of Tucaresol/T-cell adduct formation is inversely proportional to the mean fluorescence intensity (as visualized by ligation with S-NHS-biotin and FITC-avidin). T-cells were incubated for 30 min with 500 μM Tucaresol only (blue column, FIG. 5), 1 mM PABA only (orange column, FIG. 5) or a mixture of 500 μM Tucaresol and 1 mM PABA (red column, FIG. 5) at 37° C. After 30 min, the reducing agent NaCNBH3 was added to selectively reduce Schiff base adducts (chemically trapping the Tucaresol/T-cell adduct). Washed cells were exposed for 1 h to 12.5 μM S-NHS-biotin (Pierce Rockford, Ill.) to ligate unreacted free surface amino groups. After washing, cells were exposed to excess fluorescent avidin (FITC-avidin) (Pierce), fixed and visualized using flow cytometry.
For orientation: A flow cytometer gives signals particle by particle.

For data set [7] the following is noted: humans; cited from earlier work.
A short description of data set [8]: Melanoidin formation in vitro in glycine/DHA solutions. The note with it: glycine (6%) and DHA (6%), 32° C.
Method: Solutions of glycine (6%) and DHA (6%) in 100 mM NH4OAc buffer pH 5.5 were incubated in the presence (+) and absence (−) of the sodium salt of PABA (1%) at 32° C.
The test system of the next data set is HIV-positive patients. The following applies: cited from earlier work.

Structures are written as SMILES. Entries after “also recorded” stand apart in the source; their conditions may differ.

Sequence of hemoglobin (P69905 2-142 limits assumed): as above
Sequence of hemoglobin (P68871 2-147 partner limits assumed): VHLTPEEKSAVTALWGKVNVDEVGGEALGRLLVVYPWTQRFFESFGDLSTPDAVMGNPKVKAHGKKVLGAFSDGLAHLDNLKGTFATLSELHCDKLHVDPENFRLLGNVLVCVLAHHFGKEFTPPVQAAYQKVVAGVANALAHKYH
T1 sequence (P69905 2-142 limits assumed): as the sequence (P69905 2-142 limits assumed) above
T1 sequence (P68871 2-147 partner limits assumed): as the sequence (P68871 2-147 partner limits assumed) above

On to `CCC=CCCOC(=O)c1ccccc1N` [3-hexen-1-yl anthranilate], for which, in the data set with human skin, the “rate at which melanoidin formation occurs on human skin” value (from here on “rate … on human skin”) was “significantly increase the rate”.

With `O=C(O)c1ccc(/N=C/c2ccc(CO)o2)cc1` [AIC, 4-((5-(hydroxymethyl)furan-2-yl)methyleneamino)benzoic acid], in data set [1], the “chemical change by 1HNMR spectra and HPLC chromatogram on storage” value is given as “no changes”; the “color change on storage” value is given as “did not exhibit a noticeable color change”. At HbA (1 mM AIC or 1 mM 5HMF), the “rate of 5HMF/HbA adduct formation vs 5HMF (in words)” value is listed as “significantly enhanced rates”. The “percent Hb adduct (5HMF/HbA)” value at HbA (1 mM) was roughly 32%. Besides, the “initial rate of Schiff base adduct formation with HbA relative to 5HMF” value at HbA (1 mM, room temperature) is reported as roughly 10 times. Also, the 5HMF/HbS adduct formed at HbS [2] (5 mM, whole blood) is listed as 50%. Besides, the “rate of 5HMF/HbS adduct formation vs 5HMF (in words)” value at HbS [2] (5 mM, whole blood, initial rate measured after 10 min) is on record as “significantly faster; also recorded: significantly enhanced rates”. The erythrocyte membrane permeation entry on HbS [2] (whole blood, 5 mM) is “permeates the erythrocyte membrane”.

Turning to `O=Cc1ccc(CO)o1` [Example 5HMF, 5-hydroxymethyl-2-furfural], the “chemical change by 1HNMR spectra and HPLC chromatogram on storage” value in data set [1] is recorded as “After 3 days, the 5HMF sample has undergone significant chemical changes”. The “color change on storage” value in [1] is given as “becomes yellow after 24 h”. The results for the 5HMF/HbS adduct on HbS [3] (blood taken at 10 min) and on HbS [3] (blood taken at 30 min) were 5.1% and 4.1%, respectively. Also, in data set [4], the “survival time of mice exposed to severe hypoxia” value was “prolonged the survival time”. In addition, the “percent Hb adduct (5HMF/HbA)” value on HbA (1 mM) was determined as 6%. Besides, the “behavior of mice after injection” value in [5] (200 mg/kg, intravenous) was “became lethargic and exhibited noticeable changes in behavior”. Moreover, the convulsion and death entry in [5] (higher concentrations of 5HMF (300-500 mg/kg)) is “caused mice to convulse and die”. For the same compound, the 5HMF/HbS adduct formed on HbS [2] (5 mM, whole blood) was 27%; at HbS [6] (2 mM (equimolar for mixture), 37° C.), 23%; at HbS [6] (5 mM (equimolar for mixture), 30 minutes at 37° C.), 40%. Moreover, the “hypoxia-induced formation of sickle cells” value in the data set on sickle cells is “largely inhibited”. Moreover, the “n50 (hill coefficient)” value on hemoglobin (Exp A: 1 mM 5HMF, 1 h 37° C.) was found to be 2.50; on hemoglobin (Exp E: 3 mM 5HMF, 1 h 37° C.), 1.73; at hemoglobin (Exp F: 5 mM 5HMF, 1 h 37° C.), 1.91. Further, the “ΔP50 (%)” value at hemoglobin (Exp A: 1 mM 5HMF, 1 h 37° C., vs control P50) was 7.53%; at hemoglobin (Exp E: 3 mM 5HMF, 1 h 37° C.), 45.78%; on hemoglobin (Exp F: 5 mM 5HMF, 1 h 37° C.), 62.22%. The P50 at hemoglobin (Exp A: 1 mM 5HMF, Hb 1 mg/ml PBS pH 7.4, 1 h 37° C.) worked out at 14.00 mmHg; on hemoglobin (Exp E: 3 mM 5HMF, 1 h 37° C.) it was 8.21 mmHg; on hemoglobin (Exp F: 5 mM 5HMF, 1 h 37° C.), 5.72 mmHg.

`CC1CCC(C(C)C)C(OC(=O)c2ccccc2N)C1` (stereo not drawn) [Menthyl-o-aminobenzoate]: the “rate … on human skin” value with human skin is reported as “significantly increase the rate”.

Consider `Nc1ccccc1C(=O)O` [OABA, o-aminobenzoic acid], for which the “rate … on human skin” value in the data set on human skin is “significantly increase the rate”.

In the case of `Nc1ccc(C(=O)O)cc1` [PABA, p-aminobenzoic acid], the “mean fluorescence intensity of T-cells (inversely proportional to Tucaresol/T-cell adduct formation)” value in the data set on T-cell surface amines was “did not exhibit a change in mean fluorescent intensity”. In the data set on human skin, the “rate … on human skin” value is reported as “significantly increase the rate”. For the same compound, the “new adduct peak by HPLC” value on HbA (PABA only control) and on HbS [2] (PABA only negative control) was “did not show a new peak” each time. Also, the “daily doses with no reported side effects” value in [7] was “below 12 grams”. For the same compound, on HbS [6] (2 mM or 5 mM 5HMF with equimolar PABA, FIG. 2), the “amount of 5HMF/HbS adduct formed in the presence of equimolar PABA (in words)” value was “significantly increased”. Besides, the adduct formation entry on HbS [6] (PABA only control (2 mM or 5 mM)) is reported as “did not result in any adduct formation”. The “rate of darkening of solutions” value in data set [8] (100 mM NH4OAc pH 5.5, 1% PABA sodium salt, vs no PABA) was “darkened at faster rates”. Moreover, the “change of UV-Vis spectrum” value in data set [8] (1% PABA) is recorded as “changed more rapidly”. In addition, the “shift of OEC / change in P50 value vs Hb control” value on hemoglobin (100 mM, 10 mM or 1 mM PABA, no 5HMF) is “did not shift the OEC or cause a change in the P50 value”.

Turning to `O=Cc1c(O)cccc1OCc1ccc(C(=O)O)cc1` [Tucaresol, 4(2-formyl-3-hydroxy-phenoxymethyl) benzoic acid], in the data set with HIV-positive patients (HIV-positive patients), the “CD4+ counts” value is given as “increase in CD4+ counts” and the HIV viraemia entry is on record as “unaffected”. For the same compound, the “Tucaresol-related serious adverse events (patients)” value in the data set with HIV-positive patients (after the first dose) is 2/21.

As for `CCCCOC(=O)c1ccccc1N` [butyl anthranilate], the “rate … on human skin” value with human skin is recorded as “significantly increase the rate”.

Turning to `CCOC(=O)c1ccccc1N` [ethyl anthranilate], the “rate … on human skin” value in the data set on human skin is “significantly increase the rate”.

For the compound `COC(=O)c1ccccc1N` [methyl anthranilate], the “rate … on human skin” value with human skin was “significantly increase the rate”.
